Reference: patent US20180015100A1, “COMBINATION PRODUCTS FOR THE TREATMENT OF BACTERIAL INFECTIONS AND METHODS OF PRODUCING OR DOSING OF SAME” (priority 2016, published 2018)
In brackets after ≈: the same amount, converted by molar mass. Read-outs that look alike come from different tables or passages of the source.

Columns and labels:
[1] = tested on: ESBL Klebsiella pneumoniae isolates; assay: Killing kinetics (time-kill); type: cell-based; conditions: 4X MIC of CTB+CLA
[2] = tested on: 385 Escherichia coli and 126 Klebsiella pneumoniae isolates; assay: MIC, MIC50 and MIC90 by reference broth microdilution against 511 UTI/bloodstream isolates (USA and Europe 2014-2015); type: cell-based
[3] = 365 isolates producing CTX-M enzymes

With Nc1nc(/C(=C/CC(=O)O)C(=O)N[C@@H]2C(=O)N3C(C(=O)O)=CCS[C@H]23)cs1 [Ceftibuten, ceftibuten] the “Change in Log10 CFU/mL From Inoculum (0 hr)” value ([1]; AKPN1159, 2 h) was 0.65 Log10 CFU/mL, the “Change in Log10 CFU/mL From Inoculum (0 hr)” value ([1]; AKPN1159, 4 h) was 2.37 Log10 CFU/mL and the “Change in Log10 CFU/mL From Inoculum (0 hr)” value ([1]; AKPN1159, 6 h) was 3.01 Log10 CFU/mL. The “Change in Log10 CFU/mL From Inoculum (0 hr)” value ([1]; AKPN1159, 24 h) was 3.71 Log10 CFU/mL, the “Change in Log10 CFU/mL From Inoculum (0 hr)” value ([1]; AKPN1162, 2 h) was 1.57 Log10 CFU/mL and the “Change in Log10 CFU/mL From Inoculum (0 hr)” value ([1]; AKPN1162, 4 h) was 2.76 Log10 CFU/mL. For the same compound, the “Change in Log10 CFU/mL From Inoculum (0 hr)” value ([1]; AKPN1162, 6 h) was 2.96 Log10 CFU/mL, the “Change in Log10 CFU/mL From Inoculum (0 hr)” value ([1]; AKPN1162, 24 h) was 3.55 Log10 CFU/mL and the “% of the isolates inhibited at ≦1 μg/mL” value [2, 3] was 19.7%. The “% of the isolates inhibited at ≦8 μg/mL” value [2, 3] was 64.4%, the MIC50 ([2]; 365 isolates producing CTX-M enzymes (no transferrable AmpC/carbapenemase)) was 8 µg/mL (≈ 19.5 µM) and the MIC90 ([2]; 365 isolates producing CTX-M enzymes (no transferrable AmpC/carbapenemase), read-out: MIC90) was 32 µg/mL (≈ 78 µM). For the same compound, the MIC90 ([2]; 379 E. coli or K. pneumoniae isolates genotyped for CTX-M, TEM, or SHV ESBLs, 2:1 ratio) was about 32 µg/mL, the MIC50 ([2]; 511 isolates) was 8 µg/mL (≈ 19.5 µM) and the MIC90 ([2]; 511 isolates) was over 32 µg/mL. It also gave an MIC90 ([2]; 511 isolates, read-out: MIC90) of over 32 µg/mL, an MIC50 ([2]; All CTX-M-producing K pneumoniae (71)) of 8 µg/mL (≈ 19.5 µM) and an MIC90 ([2]; All CTX-M-producing K pneumoniae (71), read-out: MIC90) of over 32 µg/mL. For the same compound, the MIC50 ([2]; All CTX-M-producing isolates (365)) was 8 µg/mL (≈ 19.5 µM), the MIC90 ([2]; All CTX-M-producing isolates (365), read-out: MIC90) was 32 µg/mL (≈ 78 µM) and the MIC50 ([2]; Enterobacteriaceae (511)) was 8 µg/mL (≈ 19.5 µM). It also gave an MIC90 ([2]; Enterobacteriaceae (511), read-out: MIC90) of over 32 µg/mL, an MIC50 ([2]; Escherichia coli, All CTX-M-producing E. coli (294)) of 8 µg/mL (≈ 19.5 µM) and an MIC90 ([2]; Escherichia coli, All CTX-M-producing E. coli (294), read-out: MIC90) of 32 µg/mL (≈ 78 µM). For the same compound, the MIC50 ([2]; Escherichia coli, E. coli (385)) was 8 µg/mL (≈ 19.5 µM), the MIC90 ([2]; Escherichia coli, E. coli (385), read-out: MIC90) was over 32 µg/mL and the MIC50 ([2]; Isolates producing CTX-M Group 1 (276)) was 8 µg/mL (≈ 19.5 µM). It also gave an MIC90 ([2]; Isolates producing CTX-M Group 1 (276), read-out: MIC90) of over 32 µg/mL, an MIC50 ([2]; Isolates producing CTX-M Group 9 (92)) of 1 µg/mL (≈ 2.44 µM) and an MIC90 ([2]; Isolates producing CTX-M Group 9 (92), read-out: MIC90) of 16 µg/mL (≈ 39 µM). For the same compound, the MIC50 ([2]; Isolates producing SHV ESBL (18)) was 1 µg/mL (≈ 2.44 µM), the MIC90 ([2]; Isolates producing SHV ESBL (18), read-out: MIC90) was 16 µg/mL (≈ 39 µM) and the MIC50 ([2]; Isolates producing transferable AmpC (57)) was over 32 µg/mL. It also gave an MIC90 ([2]; Isolates producing transferable AmpC (57), read-out: MIC90) of over 32 µg/mL, an MIC50 ([2]; K pneumoniae (126)) of 8 µg/mL (≈ 19.5 µM) and an MIC90 ([2]; K pneumoniae (126), read-out: MIC90) of over 32 µg/mL. The MIC50 ([2]; KPC-producers (25)) was 8 µg/mL (≈ 19.5 µM), the MIC90 ([2]; KPC-producers (25), read-out: MIC90) was 32 µg/mL (≈ 78 µM) and the “cumulative % of isolates at MIC” value ([2]; MIC 0.015 μg/mL, All CTX-M-producing K pneumoniae (71)) was “(0.0) %”. For the same compound, the “cumulative % of isolates at MIC” value ([2]; MIC 0.015 μg/mL, All CTX-M-producing isolates (365)) was “(0.0) %”, the “cumulative % of isolates at MIC” value ([2]; MIC 0.015 μg/mL, Isolates producing CTX-M Group 9 (92)) was “(0.0) %” and the “cumulative % of isolates at MIC” value ([2]; MIC 0.015 μg/mL, Isolates producing SHV ESBL (18)) was “(0.0) %”. For the same compound, the “cumulative % of isolates at MIC” value ([2]; MIC 0.015 μg/mL, K pneumoniae (126)) was “(0.0) %”, the “cumulative % of isolates at MIC” value ([2]; MIC 0.03 μg/mL, All CTX-M-producing K pneumoniae (71)) was “(1.4) %” and the “cumulative % of isolates at MIC” value ([2]; MIC 0.03 μg/mL, All CTX-M-producing isolates (365)) was “(0.3) %”. For the same compound, the “cumulative % of isolates at MIC” value ([2]; MIC 0.03 μg/mL, E. coli (385)) was “(0.0) %”, the “cumulative % of isolates at MIC” value ([2]; MIC 0.03 μg/mL, Isolates producing CTX-M Group 9 (92)) was “(1.1) %” and the “cumulative % of isolates at MIC” value ([2]; MIC 0.03 μg/mL, Isolates producing SHV ESBL (18)) was “(11.1) %”. For the same compound, the “cumulative % of isolates at MIC” value ([2]; MIC 0.03 μg/mL, K pneumoniae (126)) was “(4.0) %”, the “cumulative % of isolates at MIC” value ([2]; MIC 0.06 μg/mL, All CTX-M-producing E. coli (294)) was “(0.0) %” and the “cumulative % of isolates at MIC” value ([2]; MIC 0.06 μg/mL, All CTX-M-producing K pneumoniae (71)) was “(2.8) %”. For the same compound, the “cumulative % of isolates at MIC” value ([2]; MIC 0.06 μg/mL, All CTX-M-producing isolates (365)) was “(0.5) %”, the “cumulative % of isolates at MIC” value ([2]; MIC 0.06 μg/mL, E. coli (385)) was “(0.3) %” and the “cumulative % of isolates at MIC” value ([2]; MIC 0.06 μg/mL, Isolates producing CTX-M Group 9 (92)) was “(2.2) %”. The “cumulative % of isolates at MIC” value ([2]; MIC 0.06 μg/mL, Isolates producing SHV ESBL (18)) was “(16.7) %”, the “cumulative % of isolates at MIC” value ([2]; MIC 0.06 μg/mL, K pneumoniae (126)) was “(6.3) %” and the “cumulative % of isolates at MIC” value ([2]; MIC 0.5 μg/mL, All CTX-M-producing E. coli (294)) was “(10.5) %”. The “cumulative % of isolates at MIC” value ([2]; MIC 0.5 μg/mL, All CTX-M-producing K pneumoniae (71)) was “(7.0) %”, the “cumulative % of isolates at MIC” value ([2]; MIC 0.5 μg/mL, All CTX-M-producing isolates (365)) was “(9.9) %” and the “cumulative % of isolates at MIC” value ([2]; MIC 0.5 μg/mL, E. coli (385)) was “(10.4) %”. For the same compound, the “cumulative % of isolates at MIC” value ([2]; MIC 0.5 μg/mL, Enterobacteriaceae (511)) was “(10.8) %”, the “cumulative % of isolates at MIC” value ([2]; MIC 0.5 μg/mL, Isolates producing CTX-M Group 1 (276)) was “(3.6) %” and the “cumulative % of isolates at MIC” value ([2]; MIC 0.5 μg/mL, Isolates producing CTX-M Group 9 (92)) was “(28.3) %”. For the same compound, the “cumulative % of isolates at MIC” value ([2]; MIC 0.5 μg/mL, Isolates producing SHV ESBL (18)) was “(38.9) %”, the “cumulative % of isolates at MIC” value ([2]; MIC 0.5 μg/mL, K pneumoniae (126)) was “(11.9) %” and the “cumulative % of isolates at MIC” value ([2]; MIC 1 μg/mL, All CTX-M-producing E. coli (294)) was “(22.1) %”. The “cumulative % of isolates at MIC” value ([2]; MIC 1 μg/mL, All CTX-M-producing K pneumoniae (71)) was “(9.9) %”, the “cumulative % of isolates at MIC” value ([2]; MIC 1 μg/mL, All CTX-M-producing isolates (365)) was “(19.7) %” and the “cumulative % of isolates at MIC” value ([2]; MIC 1 μg/mL, E. coli (385)) was “(19.7) %”. The “cumulative % of isolates at MIC” value ([2]; MIC 1 μg/mL, Isolates producing CTX-M Group 1 (276)) was “(9.1) %”, the “cumulative % of isolates at MIC” value ([2]; MIC 1 μg/mL, Isolates producing CTX-M Group 9 (92)) was “(50.0) %” and the “cumulative % of isolates at MIC” value ([2]; MIC 1 μg/mL, Isolates producing SHV ESBL (18)) was “(55.6) %”. The “cumulative % of isolates at MIC” value ([2]; MIC 1 μg/mL, K pneumoniae (126)) was “(15.1) %”, the “cumulative % of isolates at MIC” value ([2]; MIC 2 μg/mL, All CTX-M-producing E. coli (294)) was “(34.4) %” and the “cumulative % of isolates at MIC” value ([2]; MIC 2 μg/mL, All CTX-M-producing K pneumoniae (71)) was “(15.5) %”. For the same compound, the “cumulative % of isolates at MIC” value ([2]; MIC 2 μg/mL, All CTX-M-producing isolates (365)) was “(30.7) %”.
